{
  "source": "ChEMBL document CHEMBL1201862",
  "about": "“PubChem BioAssay data set” (2004)",
  "key": {"Fatty acid synthase [1]": {"target": "T1, Fatty acid synthase (Homo sapiens, UniProt P49327)", "T1 sequence (P49327 whole entry)": "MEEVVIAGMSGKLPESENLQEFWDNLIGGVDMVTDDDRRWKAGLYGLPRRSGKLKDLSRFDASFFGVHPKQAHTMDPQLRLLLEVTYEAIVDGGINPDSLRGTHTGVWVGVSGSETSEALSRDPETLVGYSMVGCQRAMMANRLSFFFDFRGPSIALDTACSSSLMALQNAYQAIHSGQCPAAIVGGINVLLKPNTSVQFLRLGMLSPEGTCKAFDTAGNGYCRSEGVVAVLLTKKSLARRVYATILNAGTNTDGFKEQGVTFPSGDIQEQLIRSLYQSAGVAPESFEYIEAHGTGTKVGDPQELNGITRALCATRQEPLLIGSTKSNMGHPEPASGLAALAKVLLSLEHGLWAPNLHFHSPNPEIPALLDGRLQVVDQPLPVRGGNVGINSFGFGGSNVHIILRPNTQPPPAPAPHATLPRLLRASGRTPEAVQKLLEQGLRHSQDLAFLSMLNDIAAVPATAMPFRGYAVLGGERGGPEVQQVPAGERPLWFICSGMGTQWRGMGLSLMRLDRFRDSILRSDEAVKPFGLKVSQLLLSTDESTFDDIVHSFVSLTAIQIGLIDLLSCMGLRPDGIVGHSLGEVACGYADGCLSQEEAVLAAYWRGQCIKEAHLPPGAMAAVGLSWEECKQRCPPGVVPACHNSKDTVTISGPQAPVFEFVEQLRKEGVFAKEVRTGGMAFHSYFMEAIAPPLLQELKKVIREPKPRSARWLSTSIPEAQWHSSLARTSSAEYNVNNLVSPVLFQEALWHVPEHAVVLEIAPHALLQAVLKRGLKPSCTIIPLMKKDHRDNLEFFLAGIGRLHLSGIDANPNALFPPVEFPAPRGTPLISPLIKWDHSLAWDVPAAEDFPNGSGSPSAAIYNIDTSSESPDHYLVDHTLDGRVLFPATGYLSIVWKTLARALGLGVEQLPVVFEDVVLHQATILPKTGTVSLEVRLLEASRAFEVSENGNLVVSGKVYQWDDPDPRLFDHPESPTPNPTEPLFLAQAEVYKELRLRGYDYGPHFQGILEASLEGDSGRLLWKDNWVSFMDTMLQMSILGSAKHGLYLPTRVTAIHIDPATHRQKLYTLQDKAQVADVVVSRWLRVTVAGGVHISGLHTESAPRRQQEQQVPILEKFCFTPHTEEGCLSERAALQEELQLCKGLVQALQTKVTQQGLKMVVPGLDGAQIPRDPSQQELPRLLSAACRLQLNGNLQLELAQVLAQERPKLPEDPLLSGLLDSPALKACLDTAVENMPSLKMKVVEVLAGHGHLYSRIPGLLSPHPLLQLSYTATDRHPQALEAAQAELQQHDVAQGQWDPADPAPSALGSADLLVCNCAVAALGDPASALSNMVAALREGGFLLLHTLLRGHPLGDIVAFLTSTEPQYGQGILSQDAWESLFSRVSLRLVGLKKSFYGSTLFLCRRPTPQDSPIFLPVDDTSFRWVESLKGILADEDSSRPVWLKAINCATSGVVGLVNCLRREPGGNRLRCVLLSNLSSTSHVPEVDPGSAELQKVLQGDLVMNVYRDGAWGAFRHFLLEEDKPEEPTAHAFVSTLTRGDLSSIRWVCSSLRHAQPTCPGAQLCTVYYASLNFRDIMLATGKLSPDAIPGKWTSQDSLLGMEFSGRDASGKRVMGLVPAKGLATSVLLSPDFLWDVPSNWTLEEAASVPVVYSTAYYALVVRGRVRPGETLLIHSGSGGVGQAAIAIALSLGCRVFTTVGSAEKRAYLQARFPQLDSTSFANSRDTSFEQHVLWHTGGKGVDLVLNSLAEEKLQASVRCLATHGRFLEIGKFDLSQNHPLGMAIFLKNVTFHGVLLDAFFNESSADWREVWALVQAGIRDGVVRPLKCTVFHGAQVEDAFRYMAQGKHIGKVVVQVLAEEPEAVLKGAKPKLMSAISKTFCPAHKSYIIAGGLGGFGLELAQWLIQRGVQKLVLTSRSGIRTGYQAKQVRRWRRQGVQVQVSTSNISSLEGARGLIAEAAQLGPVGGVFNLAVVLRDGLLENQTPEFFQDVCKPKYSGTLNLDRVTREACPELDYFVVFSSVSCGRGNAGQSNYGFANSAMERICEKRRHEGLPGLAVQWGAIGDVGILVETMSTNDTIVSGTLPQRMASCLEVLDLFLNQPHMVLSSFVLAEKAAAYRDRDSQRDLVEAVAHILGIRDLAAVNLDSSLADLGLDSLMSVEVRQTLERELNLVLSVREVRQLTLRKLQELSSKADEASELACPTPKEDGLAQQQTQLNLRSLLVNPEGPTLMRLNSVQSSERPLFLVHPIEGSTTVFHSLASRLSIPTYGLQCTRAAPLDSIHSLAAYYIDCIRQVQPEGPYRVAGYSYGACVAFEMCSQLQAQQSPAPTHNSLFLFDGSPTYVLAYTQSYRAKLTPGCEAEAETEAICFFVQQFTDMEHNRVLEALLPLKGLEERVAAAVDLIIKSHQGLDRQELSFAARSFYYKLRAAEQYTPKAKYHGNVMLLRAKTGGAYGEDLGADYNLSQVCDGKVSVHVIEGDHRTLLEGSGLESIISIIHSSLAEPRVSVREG", "test": "inhibition of human FAS-TE enzyme activity – biochemical, kinetic fluorescence intensity, dose response (AID 624326);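 also: rate of fluorescence rise from hydrolysis of a fluorogenic O-methyl fluorescein ester substrate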", "format": "functional"}, "Fatty acid synthase [2]": {"target": "T1, Fatty acid synthase", "test": "inhibition of human FAS-TE enzyme activity – biochemical, endpoint fluorescence intensity, uHTS hits, dose response (AID 624327);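 also: fluorescence from hydrolysis of an O-methyl fluorescein acyl ester substrate by the enzyme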", "format": "functional"}, "[3]": {"test": "blockers of HIV-1 ZM109 envelope-driven cell-cell fusion – HeLa effector, CEM target cells, luciferase, cherry-pick, dose response (AID 652058)", "format": "functional, cell-based"}, "[4]": {"test": "blockers of HIV-1 envelope-mediated cell-cell fusion – cherry-pick, dose response (AID 652057)", "format": "functional, cell-based"}, "[5]": {"test": "HIV-1 AD8 envelope cell-cell fusion blockers – cherry-pick, dose response (AID 652062);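 also: luciferase signal from cell-cell fusion driven by HIV-1 clade B AD8 Env; potency is for inhibitors of fusion seen as a drop in luminescence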", "format": "functional, cell-based"}, "[6]": {"target": "T2, Carboxy-terminal domain RNA polymerase II polypeptide A small phosphatase 1 (Homo sapiens, UniProt Q9GZU7)", "T2 sequence (Q9GZU7 whole entry)": "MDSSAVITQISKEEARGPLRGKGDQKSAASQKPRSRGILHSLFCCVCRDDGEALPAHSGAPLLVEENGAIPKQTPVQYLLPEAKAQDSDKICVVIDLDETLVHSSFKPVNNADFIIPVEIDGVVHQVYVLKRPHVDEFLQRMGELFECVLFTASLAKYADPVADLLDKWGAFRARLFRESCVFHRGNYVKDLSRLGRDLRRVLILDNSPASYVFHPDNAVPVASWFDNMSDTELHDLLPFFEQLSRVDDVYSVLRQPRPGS", "test": "CTDSP1 inhibitors, concentration-response, biochemical, absorbance readout, ultra-high-throughput screen actives (AID 540297)", "format": "functional"}, "[7]": {"test": "HEK-293T viability loss after treatment – luminescence, T-cell screen hits, cytotoxicity control for TCR NF-kB inhibitor project, dose response (AID 489026);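 also: cells exposed to compound about 14 hours before the viability readout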", "format": "functional, cell-based"}, "[8]": {"target": "T3, Long-chain-fatty-acid--AMP ligase FadD28 (Mycobacterium tuberculosis, UniProt P9WQ59)", "T3 sequence (P9WQ59 whole entry)": "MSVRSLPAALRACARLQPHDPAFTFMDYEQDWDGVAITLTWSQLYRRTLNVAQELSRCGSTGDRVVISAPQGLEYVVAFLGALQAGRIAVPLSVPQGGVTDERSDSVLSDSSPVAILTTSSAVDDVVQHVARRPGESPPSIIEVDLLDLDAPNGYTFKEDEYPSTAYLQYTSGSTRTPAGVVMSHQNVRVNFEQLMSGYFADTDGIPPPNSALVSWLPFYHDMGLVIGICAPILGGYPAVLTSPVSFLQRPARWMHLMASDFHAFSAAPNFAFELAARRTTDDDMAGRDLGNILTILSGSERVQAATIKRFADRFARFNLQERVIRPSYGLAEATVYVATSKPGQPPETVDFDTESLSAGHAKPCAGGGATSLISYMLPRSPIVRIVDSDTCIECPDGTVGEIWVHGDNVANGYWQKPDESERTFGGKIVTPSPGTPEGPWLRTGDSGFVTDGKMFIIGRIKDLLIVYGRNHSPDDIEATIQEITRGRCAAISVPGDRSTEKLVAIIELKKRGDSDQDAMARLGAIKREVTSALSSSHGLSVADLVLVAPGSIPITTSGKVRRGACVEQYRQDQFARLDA", "test": "Fluorescence polarization aasay to screen for inhibitors that compete for the binding of FadD28 to a bisubstrate Measured in Biochemical System Using Plate Reader - 2147-01_Inhibitor_Dose_CherryPick_Activity.", "format": "functional, Mycobacterium tuberculosis H37Rv"}, "[9]": {"test": "luciferase reporter signal suppression in cells – H4 neuroglioma cells, luminescence, dose response (AID 1990)", "format": "functional, cell-based"}, "[10]": {"test": "alpha-synuclein stem-loop luciferase translation blockers – H4 neuroglioma cells, luminescence, confirmation (AID 1988)", "format": "functional, cell-based"}, "[11]": {"test": "Luminescence Cell-Based Dose Response HTS to Identify Inhibitors of 5'UTR Stem-Loop Driven Prion Protein mRNA Translation in H4 Neuroglioblastoma Cells. [Related pubchem assays: 1827 (Project Summary), 1813 (Primary HTS)]", "format": "functional"}, "P388": {"test_system": "P388", "test": "cells", "format": "functional", "conditions": "Mus musculus"}, "Paired box protein Pax-8": {"target": "Paired box protein Pax-8 (Homo sapiens, UniProt Q06710)", "sequence (Q06710 whole entry)": "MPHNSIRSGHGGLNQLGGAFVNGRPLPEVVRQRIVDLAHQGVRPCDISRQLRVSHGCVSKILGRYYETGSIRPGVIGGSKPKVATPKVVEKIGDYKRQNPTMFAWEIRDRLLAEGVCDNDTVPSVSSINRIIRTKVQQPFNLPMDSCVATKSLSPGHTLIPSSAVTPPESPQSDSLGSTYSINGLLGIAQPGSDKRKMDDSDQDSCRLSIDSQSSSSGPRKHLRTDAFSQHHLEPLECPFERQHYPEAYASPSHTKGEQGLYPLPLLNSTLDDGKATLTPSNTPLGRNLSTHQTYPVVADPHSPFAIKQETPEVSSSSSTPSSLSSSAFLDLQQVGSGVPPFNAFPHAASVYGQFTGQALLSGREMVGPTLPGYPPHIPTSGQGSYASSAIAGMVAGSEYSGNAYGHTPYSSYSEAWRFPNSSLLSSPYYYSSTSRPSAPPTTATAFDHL", "test": "PAX8 transcriptional activity inhibition in RMG-I – RMG-I cells, luciferase, cherry-pick, dose response (AID 687027);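 also: luciferase reporter driven by Pax8 target thyroperoxidase promoter measured by SteadyGlo luminescence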", "format": "functional, cell-based"}, "P388/ADR": {"test_system": "P388/ADR", "test": "cells", "format": "functional", "conditions": "Mus musculus"}, "SN12K1": {"test_system": "SN12K1", "test": "cells", "format": "functional", "conditions": "Homo sapiens"}},
  "note": "The source made the active and inactive calls.",
  "data": [
    {"smiles": "C[C@H](NC(=O)c1[nH]cnc1C(=O)N[C@@H](CCCCNC(=O)OC(C)(C)C)C(=O)OC(C)(C)C)C(=O)OC(C)(C)C", "values": [
      {"measurement": "IC50", "setting": "Fatty acid synthase [1]", "value": "2.6 µM (active)"},
      {"measurement": "IC50", "setting": "Fatty acid synthase [2]", "value": "2.95 µM (active)"}
    ]},
    {"smiles": "O=C(NCCCc1nc2ccccc2[nH]1)c1ccco1", "values": [
      {"measurement": "AC50", "setting": "[3]", "value": "1.61 µM (active)"},
      {"measurement": "AC50", "setting": "[4]", "value": "48.8 µM (active)"}
    ]},
    {"smiles": "Cc1ccc(-c2ccc3c(c2)O[C@@H](CN(C)Cc2ccncc2)[C@H](C)CN([C@H](C)CO)S3(=O)=O)cc1", "values": [
      {"measurement": "AC50", "setting": "[5]", "value": "14.2 µM (active)"},
      {"measurement": "AC50", "setting": "[4]", "value": "10.2 µM (active)"}
    ]},
    {"smiles": "Cc1cccc(N2CCN(C(=O)c3ccc(S(=O)(=O)N(C)c4ccccc4)cc3)CC2)c1C", "values": [
      {"measurement": "IC50", "setting": "[6]", "value": "12 µM (active)"},
      {"measurement": "IC50", "setting": "[7]", "value": "> 80 µM (inactive)"}
    ]},
    {"smiles": "Cc1ccc(NC(=O)Nc2sc(=S)n(C)c2C)cc1", "values": [
      {"measurement": "AC50", "setting": "[8]", "value": "> 100 µM (inactive)"}
    ]},
    {"smiles": "COCCCNC(=O)C(=O)Nc1ccc2c(c1)N(S(=O)(=O)c1cccs1)CCC2", "values": [
      {"measurement": "EC50", "setting": "[9]", "value": "4.45 µM (inconclusive)"},
      {"measurement": "IC50", "setting": "[7]", "value": "> 80 µM (inactive)"},
      {"measurement": "EC50", "setting": "[10]", "value": "0.419 µM (active)"},
      {"measurement": "EC50", "setting": "[11]", "value": "6.86 µM (active)"}
    ]},
    {"smiles": "Cc1cccc(CSCCNC(=O)c2ccc(N(C)S(=O)(=O)c3ccccc3)cc2)c1", "values": [
      {"measurement": "AC50", "setting": "[8]", "value": "> 100 µM (inactive)"}
    ]},
    {"smiles": "Cc1sc(N2CCN(S(=O)(=O)c3ccc4c(c3)NC(=O)CO4)CC2)nc1-c1ccccc1", "values": [
      {"measurement": "IC50", "setting": "Fatty acid synthase [1]", "value": "4.04 µM (active)"},
      {"measurement": "IC50", "setting": "Fatty acid synthase [2]", "value": "4.15 µM (active)"}
    ]},
    {"smiles": "COc1ccc(NS(=O)(=O)c2cc(NC(=O)COc3ccccc3)ccc2N2CCOCC2)cc1", "values": [
      {"measurement": "AC50", "setting": "[8]", "value": "> 100 µM (inactive)"}
    ]},
    {"smiles": "CC(C)n1c(CN(C)Cc2ccccc2)nc2c1c(=O)n(C)c(=O)n2C", "values": [
      {"measurement": "EC50", "setting": "[9]", "value": "43 µM (active)"},
      {"measurement": "IC50", "setting": "[7]", "value": "> 80 µM (inactive)"},
      {"measurement": "EC50", "setting": "[10]", "value": "> 120 µM (not active)"},
      {"measurement": "EC50", "setting": "[11]", "value": "> 120 µM (not active)"}
    ]},
    {"smiles": "CCNc1ncnc2c1cnn2C1CCCO1", "note": "(stereo unspecified)", "values": [
      {"measurement": "AC50", "setting": "[3]", "value": "13.5 µM (active)"}
    ]},
    {"smiles": "C=C(C)c1nc(Oc2ccccc2)nc(Oc2ccccc2)n1", "values": [
      {"measurement": "GI50", "setting": "P388", "value": "1.17 µM (inactive)"},
      {"measurement": "AC50", "setting": "Paired box protein Pax-8", "value": "3.04 µM (active)"},
      {"measurement": "GI50", "setting": "P388/ADR", "value": "0.824 µM (active)"},
      {"measurement": "GI50", "setting": "SN12K1", "value": "3.35 µM (inactive)"}
    ]}
  ]
}
